One test addresses KRas G12D (Homo sapiens (Human), UniProt P01116, G12D). Briefly: KRas G12D Binding Assay (TR-FRET displacement). To be noted: TR-FRET displacement of Cy5 labelled tracer, GDP-loaded KRAS G12D, 60 minute incubation at 22° C. The procedure: After a 60 minute incubation at 22° C., the reaction was measured using a PerkinElmer EnVision multimode plate reader via TR-FRET dual wavelength detection, and the percent of control (POC) calculated using a ratiometric emission factor. […] The POC values were fit to a 4-parameter logistic curve and the IC50 value was determined as the concentration where the curve crosses 50 POC.

The test system of test [1] is KRas G12D-mediated phosphorylation of ERK. Kind of test: Inhibition of KRas G12D-mediated phosphorylation of ERK in AGS cells. Particulars: Homo sapiens; AGS cells expressing G12D, 3 hours, phospho-ERK normalized to GAPDH. Type of test: cell-based. The essentials: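 Fixed, methanol-permeabilized; phospho-ERK (Thr202/Tyr204) by in-cell immunofluorescence normalized to GAPDH. Percent of DMSO control, IC50 by 4-parameter fit.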

Usually IC50 stands for the concentration at which inhibition is half-maximal. A lower IC50 goes with inhibition by little substance.

KRas G12D, sequence (P01116 other isoform, or with tags, fused parts or gaps G12D): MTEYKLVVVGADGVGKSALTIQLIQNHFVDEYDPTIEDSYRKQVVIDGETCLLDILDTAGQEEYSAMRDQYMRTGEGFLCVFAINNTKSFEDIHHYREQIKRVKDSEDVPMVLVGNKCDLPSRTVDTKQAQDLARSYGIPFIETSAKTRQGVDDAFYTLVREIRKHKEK

In the case of `Oc1ccc(SC(F)(F)F)c(-c2ncc3c(N4CC5CCC(C4)N5)nc(OC[C@@]45CCCN4C[C@H](F)C5)nc3c2F)c1` (racemic) [Example 386, 3-(4-((1R,5S)-3,8-diazabicyclo[3.2.1]octan-3-yl)-8-fluoro-2-((2-fluorotetrahydro-1H-pyrrolizin-7a(5H)-yl)methoxy)pyrido[4,3-d]pyrimidin-7-yl)-4-((trifluoromethyl)thio)phenol (racemic, trans)], the figures for the half-inhibitory concentration (IC50) (at KRas G12D; in test [1]) were 2 nM and 320 nM, respectively.
For `[2H]C#Cc1cccc2cccc(-c3ncc4c(N5C[C@H]6CC[C@@H](C5)N6)nc(OCC56CCCN5CCC6)nc4c3F)c12` [Example 278, 4-((1R,5S)-3,8-diazabicyclo[3.2.1]octan-3-yl)-7-(8-(ethynyl-d)naphthalen-1-yl)-8-fluoro-2-((tetrahydro-1H-pyrrolizin-7a(5H)-yl)methoxy)pyrido[4,3-d]pyrimidine] the same measures were 0.7 nM and 104 nM.
`Fc1c(-c2ccccc2CC(F)(F)F)ncc2c(N3CC4CCC(C3)N4)nc(OC[C@@]34CCCN3C[C@H](F)C4)nc12` (racemic) [Example 383, 4-((1R,5S)-3,8-diazabicyclo[3.2.1]octan-3-yl)-8-fluoro-2-((2-fluorotetrahydro-1H-pyrrolizin-7a(5H)-yl)methoxy)-7-(2-(2,2,2-trifluoroethyl)phenyl)pyrido[4,3-d]pyrimidine (racemic, trans)] gave an IC50 on KRas G12D of 586 nM.
Take `OCC1CCC2(COc3nc(N4C[C@H]5CC[C@@H](C4)N5)c4cnc(-c5cccc6cccc(Cl)c56)c(F)c4n3)CCCN12` (stereo partly drawn) [Example 135, (7a-(((4-((1R,5S)-3,8-diazabicyclo[3.2.1]octan-3-yl)-7-(8-chloronaphthalen-1-yl)-8-fluoropyrido[4,3-d]pyrimidin-2-yl)oxy)methyl)hexahydro-1H-pyrrolizin-3-yl)methanol]: the half-maximal inhibitory concentration (IC50) on KRas G12D was 2.1 nM; in test [1], 4820 nM.
As to `COc1ccc(OC(F)(F)F)c(-c2ncc3c(N4CC5CCC(C4)N5)nc(OC[C@@]45CCCN4C[C@H](F)C5)nc3c2F)c1` (racemic) [Example 361, 4-((1R,5S)-3,8-diazabicyclo[3.2.1]octan-3-yl)-8-fluoro-2-((2-fluorotetrahydro-1H-pyrrolizin-7a(5H)-yl)methoxy)-7-(5-methoxy-2-(trifluoromethoxy)phenyl)pyrido[4,3-d]pyrimidine (racemic, trans)], the IC50 at KRas G12D was 2700 nM.
On the same count and under the same terms, to `Fc1c(-c2ccccc2C2CC2)ncc2c(N3CC4CCC(C3)N4)nc(OC[C@@]34CCCN3C[C@H](F)C4)nc12` (racemic) [Example 368, 4-((1R,5S)-3,8-diazabicyclo[3.2.1]octan-3-yl)-7-(2-cyclopropylphenyl)-8-fluoro-2-((2-fluorotetrahydro-1H-pyrrolizin-7a(5H)-yl)methoxy)pyrido[4,3-d]pyrimidine (racemic, trans)] belongs 208 nM; to `Cc1cc2[nH]ncc2c(-c2ncc3c(N4CC5CCC(C4)N5)nc(OC[C@@]45CCCN4C[C@H](F)C5)nc3c2F)c1Cl` (racemic) [Example 376, 4-((1R,5S)-3,8-diazabicyclo[3.2.1]octan-3-yl)-7-(5-chloro-6-methyl-1H-indazol-4-yl)-8-fluoro-2-((2-fluorotetrahydro-1H-pyrrolizin-7a(5H)-yl)methoxy)pyrido[4,3-d]pyrimidine (racemic, trans)], 2.6 nM; to `Oc1cccc(F)c1-c1ncc2c(N3CC4CCC(C3)N4)nc(OCC34CCCN3C[C@H](F)C4)nc2c1F` (mixture of isomers) [Example 369, 2-(4-((1R,5S)-3,8-diazabicyclo[3.2.1]octan-3-yl)-8-fluoro-2-((2-fluorotetrahydro-1H-pyrrolizin-7a(5H)-yl)methoxy)pyrido[4,3-d]pyrimidin-7-yl)-3-fluorophenol (racemic, trans)], 221 nM.
The same measure, in the same setting: the value for `Fc1c(-c2ccccc2C2CCC2)ncc2c(N3CC4CCC(C3)N4)nc(OCC34CCCN3C[C@H](F)C4)nc12` (mixture of isomers) [Example 371, 4-((1R,5S)-3,8-diazabicyclo[3.2.1]octan-3-yl)-7-(2-cyclobutylphenyl)-8-fluoro-2-((2-fluorotetrahydro-1H-pyrrolizin-7a(5H)-yl)methoxy)pyrido[4,3-d]pyrimidine (racemic, trans)] was 394 nM.
The compound `Oc1cc(-c2ncc3c(N4C[C@H]5CC[C@@H](C4)N5)nc(OCC(F)(F)F)nc3c2F)c2ccccc2c1` [Example 48, 4-(4-((1R,5S)-3,8-diazabicyclo[3.2.1]octan-3-yl)-8-fluoro-2-(2,2,2-trifluoroethoxy)pyrido[4,3-d]pyrimidin-7-yl)naphthalen-2-ol] displayed an IC50 in test [1] of 4880 nM.
In test [1], `Oc1cc(-c2ncc3c(N4C[C@H]5CC[C@@H](C4)N5)nc(OCCCN4CCOCC4)nc3c2F)c2ccccc2c1` [Example 22, 4-(4-((1R,5S)-3,8-diazabicyclo[3.2.1]octan-3-yl)-8-fluoro-2-(3-morpholinopropoxy)pyrido[4,3-d]pyrimidin-7-yl)naphthalen-2-ol] showed an IC50 of 1890 nM.
`CO[C@H]1C[C@@H](COc2nc(N3C[C@H]4CC[C@@H](C3)N4)c3cnc(-c4cccc5cccc(Cl)c45)c(F)c3n2)N(C)C1` [Example 149, 4-((1R,5S)-3,8-diazabicyclo[3.2.1]octan-3-yl)-7-(8-chloronaphthalen-1-yl)-8-fluoro-2-(((2S,4S)-4-methoxy-1-methylpyrrolidin-2-yl)methoxy)pyrido[4,3-d]pyrimidine]: the IC50 on KRas G12D stood at 870 nM.
With `OCCOc1nc(N2C[C@H]3CC[C@@H](C2)N3)c2cnc(-c3cc(O)cc4ccccc34)c(F)c2n1` [Example 69, 4-(4-((1R,5S)-3,8-diazabicyclo[3.2.1]octan-3-yl)-8-fluoro-2-(2-hydroxyethoxy)pyrido[4,3-d]pyrimidin-7-yl)naphthalen-2-ol], the half-inhibitory concentration (IC50) in test [1] was more than 16700 nM.
On the same count and under the same terms, to `CN1C[C@H](F)C[C@H]1COc1nc(N2C[C@H]3CC[C@@H](C2)N3)c2cnc(-c3cccc4cccc(Cl)c34)c(F)c2n1` [Example 115, 4-((1R,5S)-3,8-diazabicyclo[3.2.1]octan-3-yl)-7-(8-chloronaphthalen-1-yl)-8-fluoro-2-(((2S,4R)-4-fluoro-1-methylpyrrolidin-2-yl)methoxy)pyrido[4,3-d]pyrimidine] belongs 9510 nM; to `Oc1cc(-c2ncc3c(N4C[C@H]5CC[C@@H](C4)N5)nc(OCC45CCCN4CCC5)nc3c2F)c2c(F)cccc2c1` [Example 367, 4-(4-((1R,5S)-3,8-diazabicyclo[3.2.1]octan-3-yl)-8-fluoro-2-((tetrahydro-1H-pyrrolizin-7a(5H)-yl)methoxy)pyrido[4,3-d]pyrimidin-7-yl)-5-fluoronaphthalen-2-ol tris(2,2,2-trifluoroacetate)], 112 nM.
Still for that read-out and setting: to `Cc1cccc(-c2ncc3c(N4C[C@H]5CC[C@@H](C4)N5)nc(OCC45CCCN4CCC5)nc3c2F)c1C` [Example 275, 4-((1R,5S)-3,8-diazabicyclo[3.2.1]octan-3-yl)-7-(2,3-dimethylphenyl)-8-fluoro-2-((hexahydro-1H-pyrrolizin-7a-yl)methoxy)pyrido[4,3-d]pyrimidine] belongs 7060 nM.

The values are drawn from patent publication US11453683B1, “KRas G12D inhibitors” (Mirati Therapeutics, Inc., priority 2019, dated 2022).
